{"source": "patent US20070254882A1", "about": "“Sulfamide Derivatives and Pharmaceutical Composition for Upregulation of Lipid Metabolism Comprising Same” (CRYSTAL GENOMICS, INC., priority 2004, published 2007)"}
{"target": "T1, human PPAR α (Homo sapiens, UniProt Q07869)", "T1 construct": "expressed in transfected cells; host or cells: HepG2 (ATCC HB-8065) or 293T cells (ATCC CRL-1573)", "T1 sequence (Q07869 239-466 limits assumed)": "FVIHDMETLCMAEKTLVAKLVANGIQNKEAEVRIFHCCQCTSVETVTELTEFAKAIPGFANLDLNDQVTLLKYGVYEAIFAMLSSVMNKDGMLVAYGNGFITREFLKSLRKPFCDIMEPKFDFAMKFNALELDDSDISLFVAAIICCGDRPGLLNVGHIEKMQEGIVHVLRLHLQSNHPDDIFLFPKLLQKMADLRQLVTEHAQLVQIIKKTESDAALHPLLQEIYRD", "experiment": "Exogeneous PPAR α agonist assay (GAL4 DNA binding domain/PPAR α ligand binding domain, luciferase) in 293T cells", "format": "cell-based", "parameters": "scale not given here", "details": "25 μM compound, 48 hours, luciferase activity increase relative to the control", "method": "Step 1) Exogeneous PPAR α Agonist Assay\nCross-activation assay of the compounds of Examples 1 to 134 against human PPAR α was carried out using a DNA construct of PPAR α including its ligand binding domain and GAL4 DNA binding domain (Sher et al., Biochemistry 32, 5598-5604, 1993) to analyze whether any of the compounds binds to the ligand binding domain of PPAR α expressed by the construct to affect the PPAR α activity. When the GAL4 DNA binding domainm which is fused with PPAR α ligand binding domain, binds to UAS (upstream activation sequence) of firefly-luciferase, the luciferase is expressed. Therefore, the effect of each of the compounds of Examples on PPAR α activation can be evaluated by analyzing the activation of luciferase.\nSpecifically, 2×10^4 of HepG2 (ATCC HB-8065) or 293T cells (ATCC CRL-1573) were aliquotted into each well of a 96-well plate and cultured for overnight at 37° C. in a CO2 incubator (culture condition: DMEM, 10% FBS and 1% antibiotics).\nThe transformation of PPAR α DNA was traced as follows. First, a mixture of the following ingredients in amounts per well; Solution A (Promega) containing 50 ng of full length human PPAR α DNA, 50 ng of firefly-luciferase construct, 5 ng of Renilla-luciferase construct, 1.0 μl of PLUS™ reagent, and 8.3 μl of a serum-free medium containing no antibiotics; was prepared and kept at room temperature for 15 min. Solution B, which contained 0.5 μl of Lipofectamine™ reagent and 9.5 μl of serum-free medium without antibiotics per well, and Solution C, which contained 50 μl of serum-free medium per well), were prepared. Solutions A, B and C were mixed together to prepare lipofectamin-DNA complex, and the mixture was kept at room temperature for 15 min. Single layer of cells on each well of a 96-well plate were washed with serum-free DMEM, 70 μl of lipofectamine-DNA complex prepared above was added thereto, the plate was incubated at 37° C. in a 5% CO2 incubator for 3 hours to transform the cells, and […] of a diluted solution of each of the compounds of Examples 1 to 134 per well was added to each well to a final concentration 25 μM, and incubated at 37° C. in a CO2 incubator for 48 hours. Then, the medium was removed, 50 μl of passive lysis buffer (Promega) was added thereto, and the plate was shook at room temperature for 20 min to lysis cells. 40 μl of Luciferase Assay reagent of Dual Luciferase Kit […] per 20 μl of cell lysis buffer was added to the plate, followed by reacting at 20° C. for 8 seconds, and 40 μl of Stop & Glo reagent (Promega) as a stop solution was added thereto to quench the reaction. The luminescence intensities of F-luciferase and R-luciferase were measured with MicroLumat Plus (Berthord Technology)."}
{"smiles": "Cc1oc(-c2cccs2)nc1COc1cccc(CN(CC(=O)O)S(=O)(=O)N(C)C)c1", "note": "[Example 12, [N—(N,N-dimethylamino)sulfonyl-N-[3-[[2-(thiophen-2-yl)-5-methyloxazol-4-yl]methoxy]benzyl]amino]acetic acid]", "Activity at 25 μM Step 1 293T cell": 2}
{"smiles": "Cc1oc(-c2ccc(C(F)(F)F)cc2)nc1COc1cccc(CN(CC(=O)O)S(=O)(=O)N2CCCc3ccccc32)c1", "note": "[Example 36, [N-(1,2,3,4-tetraquinolinyl)sulfonyl-N-[3-[[2-(4-trifluoromethylphenyl)-5-methyloxazol-4-yl]methoxy]benzyl]amino]acetic acid]", "Activity at 25 μM Step 1 293T cell": 2}
{"smiles": "Cc1oc(-c2ccccc2)nc1COc1ccc(CN(CC(=O)O)S(=O)(=O)N(C)C)cc1", "note": "[Example 38, [N—(N,N-dimethylamino)sulfonyl-N-[4-[(2-phenyl-5-methyloxazol-4-yl)methoxy]benzyl]amino]acetic acid]", "Activity at 25 μM Step 1 293T cell": 2}
{"smiles": "Cc1oc(-c2ccccc2)nc1COc1cccc(CN(CC(=O)O)S(=O)(=O)N2CCc3ccccc32)c1", "note": "[Example 30, [N-(indolinyl)sulfonyl-N-[3-[(2-phenyl-5-methyloxazol-4-yl)methoxy]benzyl]amino]acetic acid]", "Activity at 25 μM Step 1 293T cell": 2}
{"smiles": "Cc1oc(-c2cccs2)nc1CCOc1ccc(CN(CC(=O)O)S(=O)(=O)N2CCc3ccccc32)cc1", "note": "[Example 119, [N-(indolinyl)sulfonyl-N-[4-[2-[2-(thiophen-2-yl)-5-methyloxazol-4-yl]ethoxy]benzyl]amino]acetic acid]", "Activity at 25 μM Step 1 293T cell": 2}
{"smiles": "Cc1oc(-c2ccc(C(F)(F)F)cc2)nc1COc1cccc(CN(CC(=O)O)S(=O)(=O)N2CCN(C)CC2)c1", "note": "[Example 27, [N-(4-methyl-1-piperazinyl)sulfonyl-N-[3-[[2-(4-trifluoromethylphenyl)-5-methyloxazol-4-yl]methoxy]benzyl]amino]acetic acid]", "Activity at 25 μM Step 1 293T cell": 1}
{"smiles": "Cc1oc(-c2ccccc2)nc1CCOc1ccc(CN(CC(=O)O)S(=O)(=O)N(C)c2ccccc2)cc1", "note": "[Example 105, [N—[(N-methyl-N-phenyl)amino]sulfonyl-N-[4-[2-(2-phenyl-5-methyloxazol-4-yl)ethoxy]benzyl]amino]acetic acid]", "Activity at 25 μM Step 1 293T cell": 2}
{"smiles": "Cc1ccc(-c2nc(CCOc3ccc(CN(CC(=O)O)S(=O)(=O)N(C)c4ccccc4)cc3)c(C)o2)cc1", "note": "[Example 106, [N—[(N-methyl-N-phenyl)amino]sulfonyl-N-[4-[2-[2-(4-methylphenyl)-5-methyloxazol-4-yl]ethoxy]benzyl]amino]acetic acid]", "Activity at 25 μM Step 1 293T cell": 2}
{"smiles": "Cc1ccc(-c2nc(COc3ccc(CN(CC(=O)O)S(=O)(=O)N4CCN(C)CC4)cc3)c(C)o2)cc1", "note": "[Example 43, [N-(4-methyl-1-piperazinyl)sulfonyl-N-[4-[[2-(4-methylphenyl)-5-methyloxazol-4-yl]methoxy]benzyl]amino]acetic acid]", "Activity at 25 μM Step 1 293T cell": 2}
{"smiles": "Cc1ccc(-c2nc(COc3cccc(CN(CC(=O)O)S(=O)(=O)N4CCc5ccccc54)c3)c(C)o2)cc1", "note": "[Example 31, [N-(indolinyl)sulfonyl-N-[3-[[2-(4-methylphenyl)-5-methyloxazol-4-yl]methoxy]benzyl]amino]acetic acid]", "Activity at 25 μM Step 1 293T cell": 3}
{"smiles": "Cc1oc(-c2ccc(C(F)(F)F)cc2)nc1COc1cccc(CN(CC(=O)O)S(=O)(=O)N2CCCC2)c1", "note": "[Example 25, [N-(pyrrolidinyl)sulfonyl-N-[3-[[2-(4-trifluoromethylphenyl)-5-methyloxazol-4-yl]methoxy]benzyl]amino]acetic acid]", "Activity at 25 μM Step 1 293T cell": 2}
{"smiles": "Cc1oc(-c2ccccc2)nc1CCOc1cccc(CN(CC(=O)O)S(=O)(=O)N(C)C)c1", "note": "[Example 61, [N—(N,N-dimethylamino)sulfonyl-N-[3-[2-(2-phenyl-5-methyloxazol-4-yl)ethoxy]benzyl]amino]acetic acid]", "Activity at 25 μM Step 1 293T cell": 2}
{"smiles": "Cc1oc(-c2ccccc2)nc1CCOc1ccc(CN(CC(=O)O)S(=O)(=O)N(C)C)cc1", "note": "[Example 98, [N—(N,N-dimethylamino)sulfonyl-N-[4-[2-(2-phenyl-5-methyloxazol-4-yl)ethoxy]benzyl]amino]acetic acid]", "Activity at 25 μM Step 1 293T cell": 1}
{"smiles": "Cc1ccc(-c2nc(CCOc3ccc(CN(CC(=O)O)S(=O)(=O)NC(C)(C)C)cc3)c(C)o2)cc1", "note": "[Example 100, [N—(N-t-butylamino)sulfonyl-N-[4-[2-[2-(4-methylphenyl)-5-methyloxazol-4-yl]ethoxy]benzyl]amino]acetic acid]", "Activity at 25 μM Step 1 293T cell": 2}
{"smiles": "Cc1ccc(-c2nc(COc3ccc(CN(CC(=O)O)S(=O)(=O)N(C)c4ccccc4)cc3)c(C)o2)cc1", "note": "[Example 46, [N—[(N-methyl-N-phenyl)amino]sulfonyl-N-[4-[[2-(4-methylphenyl)-5-methyloxazol-4-yl]methoxy]benzyl]amino]acetic acid]", "Activity at 25 μM Step 1 293T cell": 2}
{"smiles": "Cc1ccc(-c2nc(COc3ccc(CN(CC(=O)O)S(=O)(=O)N4CCOCC4)cc3)c(C)o2)cc1", "note": "[Example 44, [N-(morpholinyl)sulfonyl-N-[4-[[2-(4-methylphenyl)-5-methyloxazol-4-yl]methoxy]benzyl]amino]acetic acid]", "Activity at 25 μM Step 1 293T cell": 3}
{"smiles": "Cc1nc(-c2ccc(C(F)(F)F)cc2)oc1COc1cccc(CN(CC(=O)O)S(=O)(=O)N(C)C)c1", "note": "[Example 13, [N—(N,N-dimethylamino)sulfonyl-N-[3-[[2-(4-trifluoromethylphenyl)-4-methyloxazol-5-yl]methoxy]benzyl]amino]acetic acid]", "Activity at 25 μM Step 1 293T cell": 2}
{"smiles": "Cc1nc(-c2ccc(C(F)(F)F)cc2)oc1COc1cccc(CN(CC(=O)O)S(=O)(=O)N2CCOCC2)c1", "note": "[Example 29, [N-(morpholinyl)sulfonyl-N-[3-[[2-(4-trifluoromethylphenyl)-4-methyloxazol-5-yl]methoxy]benzyl]amino]acetic acid]", "Activity at 25 μM Step 1 293T cell": 2}
{"smiles": "Cc1oc(-c2ccccc2)nc1COc1cccc(CN(CC(=O)O)S(=O)(=O)N(C)c2ccccc2)c1", "note": "[Example 14, [N—[(N-methyl-N-phenyl)amino]sulfonyl-N-[3-[(2-phenyl-5-methyloxazol-4-yl)methoxy]benzyl]amino]acetic acid]", "Activity at 25 μM Step 1 293T cell": 2}
{"smiles": "Cc1ccc(-c2nc(CCOc3cccc(CN(CC(=O)O)S(=O)(=O)N4CCCC4)c3)c(C)o2)cc1", "note": "[Example 84, [N-(pyrrolidinyl)sulfonyl-N-[3-[2-[2-(4-methylphenyl)-5-methyloxazol-4-yl]ethoxy]benzyl]amino]acetic acid]", "Activity at 25 μM Step 1 293T cell": 1}
{"smiles": "Cc1oc(-c2ccc(C(F)(F)F)cc2)nc1CCOc1ccc(CN(CC(=O)O)S(=O)(=O)N(C)c2ccc(Cl)cc2)cc1", "note": "[Example 114, [N—[[N-methyl-N-(4-chlorophenyl)]amino]sulfonyl-N-[4-[2-[2-(4-trifluoromethylphenyl)-5-methyloxazol-4-yl]ethoxy]benzyl]amino]acetic acid]", "Activity at 25 μM Step 1 293T cell": 2}
{"smiles": "Cc1ccc(-c2nc(CCOc3cccc(CN(CC(=O)O)S(=O)(=O)N4CCOCC4)c3)c(C)o2)cc1", "note": "[Example 86, [N-(morpholinyl)sulfonyl-N-[3-[2-[2-(4-methylphenyl)-5-methyloxazol-4-yl]ethoxy]benzyl]amino]acetic acid]", "Activity at 25 μM Step 1 293T cell": 2}
